The values that follow come from ChEMBL document CHEMBL6153153, “Use of Aldehyde-Alkyne-Amine Couplings to Generate Medicinal Chemistry-Relevant Linkers” (ACS Med Chem Lett, 2025).

Each structure is given as a SMILES string. Calls of active or inactive are those of the source. No cut-off for these calls is given here.

Series [1] is described as follows: Solubility of compound in 5 percent PBS buffer. Format: physicochemical.
Series [2] is described as follows: Solubility of the compound in saline. The following applies: buffer. Format: physicochemical.
A short description of series [3]: Solubility of compound. It counts as physicochemical.
For series [4], the system named is HEK293. As to the kind of experiment: PROTAC activity at E3 ligase/long BRD4 (unknown origin) expressed in HEK293 cells assessed as induction of BRD4 degradation at 300 to 1000 nM incubated for 18 hrs in presence of MG132 by Western blot analysis. Format: cell-based. As to conditions: Homo sapiens, dose 300-1000 nM.
Series [5] concerns HEK293. As to the kind of experiment: PROTAC activity at E3 ligase/short BRD4 (unknown origin) expressed in HEK293 cells assessed as induction of BRD4 degradation at 300 to 1000 nM incubated for 18 hrs by Western blot analysis. The following applies: Homo sapiens, dose 300-1000 nM. Format: cell-based.
Series [6] deals with HEK293. Nature of the series: PROTAC activity at E3 ligase/short BRD4 (unknown origin) expressed in HEK293 cells assessed as induction of BRD4 degradation at 300 to 1000 nM incubated for 18 hrs in presence of MLN4924 by Western blot analysis. As to conditions: Homo sapiens, dose 300-1000 nM. It counts as cell-based.
Series [7] deals with HEK293. As to the kind of experiment: PROTAC activity at E3 ligase/short BRD4 (unknown origin) expressed in HEK293 cells assessed as induction of BRD4 degradation at 300 to 1000 nM incubated for 18 hrs in presence of thalidomide by Western blot analysis. Format: cell-based. The following applies: Homo sapiens, dose 300-1000 nM. For orientation: Immunoblotting shows a protein as a band on a membrane.

Series [8] has as its system HEK293. Nature of the series: PROTAC activity at E3 ligase/short BRD4 (unknown origin) expressed in HEK293 cells assessed as induction of BRD4 degradation at 300 to 1000 nM incubated for 18 hrs in presence of MG132 by Western blot analysis. The following applies: Homo sapiens, dose 300-1000 nM. Format: cell-based.
Series [9] concerns HEK293. Nature of the series: PROTAC activity at E3 ligase/long BRD4 (unknown origin) expressed in HEK293 cells assessed as induction of BRD4 degradation at 300 to 1000 nM incubated for 18 hrs in presence of MLN4924 by Western blot analysis. Format: cell-based. As to conditions: Homo sapiens, dose 300-1000 nM.
The subject of series [10] is HEK293. Nature of the series: PROTAC activity at E3 ligase/long BRD4 (unknown origin) expressed in HEK293 cells assessed as induction of BRD4 degradation at 300 to 1000 nM incubated for 18 hrs in presence of thalidomide by Western blot analysis. As to conditions: Homo sapiens, dose 300-1000 nM. Format: cell-based.
For series [11], the system named is HEK293. As to the kind of experiment: PROTAC activity at E3 ligase/long BRD4 (unknown origin) expressed in HEK293 cells assessed as induction of BRD4 degradation at 300 to 1000 nM incubated for 18 hrs by Western blot analysis. Format: cell-based. The following applies: Homo sapiens, dose 300-1000 nM.

Consider `Cc1sc2c(c1C)C(c1ccc(Cl)cc1)=N[C@@H](CC(=O)NCC#CC(C1CCN(C(=O)COc3cccc4c3C(=O)N(C3CCC(=O)NC3=O)C4=O)CC1)N1CCN(C(=O)COc3cccc4c3C(=O)N(C3CCC(=O)NC3=O)C4=O)CC1)c1nnc(C)n1-2` (some centres undefined), for which the solubility result in series [1], in [2] and in series [3] was “Insoluble” each time.
As for `Cc1ncsc1-c1ccc(CNC(=O)[C@@H]2C[C@@H](O)CN2C(=O)[C@@H](NC(=O)CCCCC(=O)NC2CCN(C(C#CCCSc3ccc(C(=O)NCCNC(=O)C[C@@H]4N=C(c5ccc(Cl)cc5)c5c(sc(C)c5C)-n5c(C)nnc54)cc3)C3CCOCC3)CC2)C(C)(C)C)cc1` (some centres undefined), the solubility entry in series [3] is “Insoluble”.
As for `Cc1sc2c(c1C)C(c1ccc(Cl)cc1)=N[C@@H](CC(=O)NCCNC(=O)c1ccc(SCCC#CC(C3CCOCC3)N3CCC(NC(=O)COc4cccc5c4C(=O)N(C4CCC(=O)NC4=O)C5=O)CC3)cc1)c1nnc(C)n1-2` (some centres undefined), the result with HEK293 [4], in the series with HEK293 [6], in the series on HEK293 [7], in the series with HEK293 [8], with HEK293 [9] and in the series with HEK293 [10] was inactive. Moreover, the result in the series with HEK293 [5] and in the series on HEK293 [11] was Active. The solubility entry in series [1] and in series [2] was “Insoluble” each time.
